Experimental data reported in US6525026B2, “Carbamyloxy compounds which inhibit leukocyte adhesion mediated by VLA-4” (Elan Pharmaceuticals, Inc., priority 1997, dated 2003).
Numbered stars: 1 amine (or outer) side, 2 acyl side, 3 side chain; on linkers, the order of the positions; unused ones are H or OH. Side chains are listed from the residue outwards. Peptide text beside a SMILES is read from it. * marks the point of attachment. Tos = Cc1ccc(S(=O)(=O)*)cc1; CO = O=C([*:1])[*:2]; OiPr = CC(C)O*

Assays:
rats or guinea pigs = test: Experimental Autoimmune (or Allergic) Encephalomyelitis (EAE) model, motor impairment; assay type: in vivo; conditions: treatment from Day 8, 10 mg/kg to 200 mg/kg bid for five days, SC, PO or IP

| melting point [°C] | SMILES | active in EAE in vivo assay (delayed the onset of symptoms, e.g., clinical scores no greater than 2 or slowed body weight loss as compared to the control) (rats or guinea pigs) |
| --- | --- | --- |
| 158 to 160 | Cc1ccc(S(=O)(=O)N2CCC[C@H]2C(=O)N[C@@H](Cc2ccc(OC(=O)N3CCN(CCO)CC3)cc2)C(=O)OC(C)(C)C)cc1 | – |
| – | Cc1ccc(S(=O)(=O)N2CCC[C@H]2C(=O)N[C@@H](Cc2ccc(OC(=O)N3CCN(C)CC3)cc2)C(=O)OC(C)(C)C)cc1 [Example 4, N-(Toluene-4-sulfonyl)-L-prolyl-L-4-(4-methylpiperazin-1-ylcarbonyloxy)phenylalanine tert-Butyl Ester] | active |
| – | Cc1ccc(S(=O)(=O)N2CCC[C@H]2C(=O)N[C@@H](Cc2ccc(OC(=O)N(C)C)cc2)C(=O)O)cc1 [Example 9, N-(Toluene-4-sulfonyl)-L-prolyl-L-4-(N,N-dimethylcarbamyloxy)phenylalanine] (Tos-Pro-Tyr([CO-NMe2])-OH) | active |
| – | Cc1ccc(S(=O)(=O)N2CSC(C)(C)[C@H]2C(=O)N[C@@H](Cc2ccc(OC(=O)N(C)C)cc2)C(=O)OC(C)C)cc1 [Example 11, N-(Toluene-4-sulfonyl)-L-(5,5-dimethyl)thiaprolyl-L-4-(N,N-dimethylcarbamyloxy)phenylalanine Isopropyl Ester] | active |
| – | Cc1ccc(S(=O)(=O)N2CSC(C)(C)[C@H]2C(=O)N[C@@H](Cc2ccc(OC(=O)N(C)C)cc2)C(=O)OC(C)(C)C)cc1 [Example 12, N-(Toluene-4-sulfonyl)-L-(5,5-dimethyl)thiaprolyl-L-4-(N,N-dimethylcarbamyloxy)phenylalanine tert-Butyl Ester] | active |
| – | Cc1ccc(S(=O)(=O)N2CSC(C)(C)[C@H]2C(=O)N[C@@H](Cc2ccc(OC(=O)N3CCN(C)CC3)cc2)C(=O)OC(C)(C)C)cc1 [Example 16, N-(Toluene-4-sulfonyl)-L-(5,5-dimethyl)thiaprolyl-L-4-(4-methylpiperazin-1-ylcarbonyloxy)phenylalanine tert-Butyl Ester] | active |
| – | Cc1ccc(S(=O)(=O)N2CCS(=O)(=O)C[C@@H]2C(=O)N[C@@H](Cc2ccc(OC(=O)N(C)C)cc2)C(=O)OC(C)(C)C)cc1 [Example 51, N-(Toluene-4-sulfonyl)-L-(1,1-dioxothiamorpholin-3-carbonyl)-L-4-(N,N-dimethylcarbamyloxy)phenylalanine tert-Butyl Ester] | active |
| – | Cc1ccc(S(=O)(=O)N2CCS(=O)(=O)C[C@@H]2C(=O)N[C@@H](Cc2ccc(OC(=O)N(C)C)cc2)C(=O)OC(C)C)cc1 [Example 73, N-(Toluene-4-sulfonyl)-L-(1,1-dioxothiamorpholin-3-carbonyl)-L-4-(N,N-dimethylcarbamyloxy)phenylalanine Isopropyl Ester] | active |
| – | Cc1ccc(S(=O)(=O)N2CS(=O)(=O)C(C)(C)[C@H]2C(=O)N[C@@H](Cc2ccc(OC(=O)N(C)C)cc2)C(=O)OC(C)C)cc1 [Example 75, N-(Toluene-4-sulfonyl)-L-(1,1-dioxo-5,5-dimethyl)thiaprolyl-L-4-(N,N-dimethylcarbamyloxy)phenylalanine Isopropyl Ester] | active |
| – | Cc1ccc(S(=O)(=O)N2CCC[C@H]2C(=O)N[C@@H](Cc2ccc(OC(=O)N3CCSCC3)cc2)C(=O)OC(C)(C)C)cc1 [Example 82, N-(Toluene-4-sulfonyl)-L-prolyl-L-4-(thiomorpholin-4-ylcarbonyloxy)phenylalanine tert-Butyl Ester] | active |
| – | CN(C)C(=O)Oc1ccc(C[C@H](NC(=O)[C@H]2N(S(=O)(=O)c3ccc(F)cc3)CSC2(C)C)C(=O)OC(C)(C)C)cc1 [Example 95, N-(4-Fluorobenzenesulfonyl)-L-(5,5-dimethyl)thiaprolyl-L-4-(N,N-dimethylcarbamyloxy)phenylalanine tert-Butyl Ester] | active |
| – | Cc1ccc(S(=O)(=O)N2CCC[C@H]2C(=O)N[C@@H](Cc2ccc(OC(=O)N(C)C)cc2)C(=O)OC(C)C)cc1 [Example 101, N-(Toluene-4-sulfonyl)-L-prolyl-L-4-(N,N-dimethylcarbamyloxy)-L-phenylalanine Isopropyl Ester] (Tos-Pro-Tyr([CO-NMe2])-OiPr) | active |
| – | CN(C)C(=O)Oc1ccc(C[C@H](NC(=O)[C@@H]2CCCN2S(=O)(=O)c2cnn(C)c2)C(=O)OC(C)(C)C)cc1 [Example 117, N-(Methyl-pyrazole-4-sulfonyl)-L-prolyl-L-(4-N,N-dimethylcarbamyloxy)phenylalanine tert-Butyl Ester] | active |
| – | CC(C)OC(=O)[C@H](Cc1ccc(OC(=O)N(C)C)cc1)NC(=O)[C@@H]1CCCN1S(=O)(=O)c1cnn(C)c1 [Example 137, N-(Methyl-pyrazole-4-sulfonyl)-L-prolyl-L-(4-N,N-dimethylcarbamyloxy)-phenylalanine Isopropyl Ester] | active |
